# Values quoted from earlier work, collected in patent publication US20050089581A1, “Magnesium-containing compositions and methods for enhancing dehydroepiandrosterone levels” (priority 2003, published 2005).
# Columns and labels:
# platelet aggregation = conditions: second week, 300 mg DHEA per day orally
# [1] = test system: human coxsackievirus B4 strain
# [2] = second week, 300 mg DHEA per day orally
# [3] = administration of DHEA, its esters, or salts thereof; W. Regelson et al.
# DHEA levels = conditions: oral administration
Molecule,subjects with slower rate of platelet aggregation and need for higher arachidonic acid concentration to initiate aggregation (platelet aggregation),"mortality ([1]; infection with 100,000 plaque forming units/animal, about 90% mortality in infected animals without treatment) [%]","elevation in the number of antibody forming cells ([1]; within the animal, DHEA administered) [%]","mean serum DHEA-S level ([2]; DHEA group, baseline 316.2, placebo 260.5+/−56.7) [µg/dL]","mean serum DHEA ([2]; treated group, baseline 5.83+/−3.9, placebo 5.58+/−4.1) [ng/mL]",side effects [3],effect on DHEA levels (DHEA levels)
"C[C@]12CCC(O)CC1=CC[C@@H]1[C@@H]2CC[C@]2(C)C(=O)CC[C@@H]12 (stereo partly shown) [DHEA, 3-hydroxyandrost-5-en-17-one]",Four of the five test subjects,37,80,1451.9 ± 56.7,28.7 ± 13.9,mild androgenic effects and hirsutism,–
magnesium taurate,–,–,–,–,–,–,does not increase DHEA levels
